Test results from patent US9499492B2, “4-(ortho)-fluorophenyl-5-fluoropyrimidin-2-yl amines containing a sulfoximine group” (BAYER PHARMA AKTIENGESELLSCHAFT, priority 2012, dated 2016).
Like-named read-outs stand apart in the source and are kept apart here.

Assays:
CDK2/CycE = CDK2/CycE (Homo sapiens (Human), UniProt P24941); test: CDK2/CycE kinase assay (Method 2); assay type: biochemical; conditions: 10 μM ATP
Source text: 2. CDK2/CycE Kinase Assay:
CDK2/CycE-inhibitory activity of compounds of the present invention was quantified employing the CDK2/CycE TR-FRET assay as described in the following paragraphs:
Recombinant fusion proteins of GST and human CDK2 and of GST and human CycE, expressed in insect cells (Sf9) and purified by Glutathion-Sepharose affinity chromatography, were purchased from ProQinase GmbH (Freiburg, Germany). As substrate for the kinase reaction biotinylated peptide biotin-Ttds-[…] (C-terminus in amid form) was used which can be purchased e.g. form the company JERINI Peptide Technologies (Berlin, Germany).
(§1) For the assay 50 nl of a 100 fold concentrated solution of the test compound in DMSO was pipetted into a black low volume 384 well microtiter plate (Greiner Bio-One, Frickenhausen, Germany), 2 μl of a solution of CDK2/CycE in aqueous assay buffer [50 mM Tris/HCl pH 8.0, 10 mM MgCl2, 1.0 mM dithiothreitol, 0.1 mM sodium ortho-vanadate, 0.01% (v/v) Nonidet-P40 (Sigma)] were added and the mixture was incubated for 15 min at 22° C. to allow pre-binding of the test compounds to the enzyme before the start of the kinase reaction. […] The concentration of CDK2/CycE was adjusted depending of the activity of the enzyme lot and was chosen appropriate to have the assay in the linear range, typical concentrations were in the range of 130 ng/ml.
(§2) The resulting mixture was incubated 1 h at 22° C. to allow the formation of complex between the phosphorylated biotinylated peptide and the detection reagents. Subsequently the amount of phosphorylated substrate was evaluated by measurement of the resonance energy transfer from the Eu-chelate to the streptavidine-XL. Therefore, the fluorescence emissions at 620 nm and 665 nm after excitation at 350 nm was measured in a TR-FRET reader, e.g. a Rubystar (BMG Labtechnologies, Offenburg, Germany) or a Viewlux (Perkin-Elmer). The ratio of the emissions at 665 nm and at 622 nm was taken as the measure for the amount of phosphorylated substrate.

[1] = tested on: HeLa, human cervical tumour cells; test: Proliferation assay, HeLa (Method 3); assay type: cell-based; conditions: 4 days, crystal violet, read-out: Inhibition of HeLa cell proliferation IC50
Description: (§3) After 24 hours, the cells of one plate (zero-point plate) were stained with crystal violet (see below), while the medium of the other plates was replaced by fresh culture medium (200 μl), to which the test substances were added in various concentrations (0 μM, as well as in the range of 0.001-10 μM; the final concentration of the solvent dimethyl sulfoxide was 0.5%). The cells were incubated for 4 days in the presence of test substances. Cell proliferation was determined by staining the cells with crystal violet: the cells were fixed by adding 20 μl/measuring point of an 11% glutaric aldehyde solution for 15 minutes at room temperature. After three washing cycles of the fixed cells with water, the plates were dried at room temperature. The cells were stained by adding 100 μl/measuring point of a 0.1% crystal violet solution (pH 3.0). After three washing cycles of the stained cells with water, the plates were dried at room temperature. The dye was dissolved by adding 100 μl/measuring point of a 10% acetic acid solution. The extinction was determined by photometry at a wavelength of 595 nm. The change of cell number, in percent, was calculated by normalization of the measured values to the extinction values of the zero-point plate (=0%) and the extinction of the untreated (0 μm) cells (=100%).

[2] = In vitro metabolic stability in rat hepatocytes (Method 5); assay type: in vitro ADME, Han Wistar rat; conditions: 1 μM test compound
Description: 5. Investigation of In Vitro Metabolic Stability in Rat Hepatocytes
Hepatocytes from Han Wistar rats were isolated via a 2-step perfusion method. After perfusion, the liver was carefully removed from the rat: the liver capsule was opened and the hepatocytes were gently shaken out into a Petri dish with ice-cold Williams medium E (purchased from Sigma Aldrich Life Science, St Louis, Mo.). The resulting cell suspension was filtered through sterile gaze in 50 ml falcon tubes and centrifuged at 50×g for 3 min at room temperature. The cell pellet was resuspended in 30 ml WME and centrifuged through a Percoll® gradient for 2 times at 100×g. The hepatocytes were washed again with Williams' medium E (WMA) and resuspended in medium containing 5% Fetal calf serum (FCS, purchased from Invitrogen, Auckland, NZ). Cell viability was determined by trypan blue exclusion.
For the metabolic stability assay liver cells were distributed in WME containing 5% FCS to glass vials at a density of 1.0×10^6 vital cells/ml. The test compound was added to a final concentration of 1 μM. During incubation, the hepatocyte suspensions were continuously shaken and aliquots were taken at 2, 8, 16, 30, 45 and 90 min, to which equal volumes of cold acetonitrile were immediately added. Samples were frozen at −20° C. over night, after subsequently centrifuged for 15 minutes at 3000 rpm and the supernatant was analyzed with an Agilent 1200 HPLC-system with LCMS/MS detection.
The half-life of a test compound was determined from the concentration-time plot. From the half-life the intrinsic clearances were calculated. Together with the additional parameters liver blood flow, amount of liver cells in vivo and in vitro.

[3] = tested on: A2780, human ovarian carcinoma cells; test: Proliferation assay, A2780 (Method 3); assay type: cell-based; conditions: A2780, 4 days, crystal violet, read-out: Inhibition of A2780 cell proliferation IC50
Description: as §3

CDK9/CycT1 [4] = target: T1, CDK9/CycT1 (Homo sapiens (Human), UniProt P50750); test: CDK9/CycT1 kinase assay (Method 1a); assay type: biochemical; conditions: for IC50: 10 μM ATP; for Selectivity CDK9/CDK2: derived from Methods 1a. and 2.
Source text: 1a. CDK9/CycT1 Kinase Assay:
CDK9/CycT1-inhibitory activity of compounds of the present invention was quantified employing the CDK9/CycT1 TR-FRET assay as described in the following paragraphs:
(§4) Recombinant full-length His-tagged human CDK9 and CycT1, expressed in insect cells and purified by Ni-NTA affinity chromatography, were purchased from Invitrogen (Cat. No PV4131). As substrate for the kinase reaction biotinylated peptide biotin-Ttds-[…] (C-terminus in amid form) was used which can be purchased e.g. form the company JERINI Peptide Technologies (Berlin, Germany).
as §1, with “CDK9/CycT1” for “CDK2/CycE”, “1 μg/ml.” for “130 ng/ml.”
as §2, with “HTRF” for “TR-FRET”

CDK9/CycT1 [5] = target: T1, CDK9/CycT1; test: CDK9/CycT1 high ATP kinase assay (Method 1b); assay type: biochemical; conditions: 2 mM ATP
Description: 1b. CDK9/CycT1 High ATP Kinase Assay
CDK9/CycT1-inhibitory activity of compounds of the present invention at a high ATP concentration after preincubation of enzyme and test compounds was quantified employing the CDK9/CycT1 TR-FRET assay as described in the following paragraphs.
as §4, with “were purchase” for “were purchased”, “JERINI peptide technologies” for “JERINI Peptide Technologies”
as §1, with “CDK9/CycT1” for “CDK2/CycE”, “0.5 μg/ml.” for “130 ng/ml.”
as §2, with “HTRF” for “TR-FRET”

[6] = tested on: MOLM-13 human acute myeloid leukemia cells; test: Proliferation assay, MOLM-13 (Cell Titre-Glo, Method 3); assay type: cell-based; conditions: MOLM-13, 72-hour exposure, read-out: Inhibition of MOLM-13 cell proliferation IC50
Description: Non-adherent MOLM-13 human acute myeloid leukemia cells (DSMZ ACC 554) were seeded at a density of 5,000 cells/well in a 96-well multititer plate in 100 μL of growth medium supplemented 10% fetal calf serum. After 24 hours, cell viability of one plate (zero-point plate) was determined with the Cell Titre-Glo Luminescent Cell Viability Assay (Promega), while 50 μL of test compound containing medium was added to the wells of the other plates (final concentrations in the range of 0.001-10 μM and DMSO controls; the final concentration of the solvent dimethyl sulfoxide was 0.5%). Cell viability was assessed after 72-hour exposure with the Cell Titre-Glo Luminescent Cell Viability Assay (Promega).

T1 sequence (P50750 whole entry): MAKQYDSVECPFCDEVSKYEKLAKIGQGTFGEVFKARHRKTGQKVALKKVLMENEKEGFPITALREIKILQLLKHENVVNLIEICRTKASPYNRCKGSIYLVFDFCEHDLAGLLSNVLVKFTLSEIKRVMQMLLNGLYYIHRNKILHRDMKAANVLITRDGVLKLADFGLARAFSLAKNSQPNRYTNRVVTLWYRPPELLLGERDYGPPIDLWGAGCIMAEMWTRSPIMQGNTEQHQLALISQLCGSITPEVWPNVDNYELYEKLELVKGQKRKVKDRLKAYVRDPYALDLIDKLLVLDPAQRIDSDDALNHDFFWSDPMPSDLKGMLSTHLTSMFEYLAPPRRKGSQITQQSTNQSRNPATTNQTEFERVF
T1 sequence (O60563 whole entry partner): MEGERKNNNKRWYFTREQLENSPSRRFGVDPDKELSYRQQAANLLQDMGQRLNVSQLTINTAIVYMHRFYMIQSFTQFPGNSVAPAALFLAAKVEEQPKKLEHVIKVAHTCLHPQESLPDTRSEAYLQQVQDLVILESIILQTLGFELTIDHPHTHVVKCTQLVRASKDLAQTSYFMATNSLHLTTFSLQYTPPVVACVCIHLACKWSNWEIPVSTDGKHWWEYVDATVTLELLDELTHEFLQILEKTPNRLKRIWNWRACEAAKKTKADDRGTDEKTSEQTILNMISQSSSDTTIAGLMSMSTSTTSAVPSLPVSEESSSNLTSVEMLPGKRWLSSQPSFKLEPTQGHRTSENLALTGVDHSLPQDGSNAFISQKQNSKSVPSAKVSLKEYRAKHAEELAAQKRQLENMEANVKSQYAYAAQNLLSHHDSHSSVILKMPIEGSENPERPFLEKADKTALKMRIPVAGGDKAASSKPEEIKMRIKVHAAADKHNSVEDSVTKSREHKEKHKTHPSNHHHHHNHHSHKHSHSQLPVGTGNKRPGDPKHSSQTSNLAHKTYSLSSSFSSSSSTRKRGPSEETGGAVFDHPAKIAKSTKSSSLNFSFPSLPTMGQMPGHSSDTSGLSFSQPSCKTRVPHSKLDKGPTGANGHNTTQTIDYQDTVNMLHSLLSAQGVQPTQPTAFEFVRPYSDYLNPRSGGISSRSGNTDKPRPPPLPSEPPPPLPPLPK

Row | IC50 (CDK2/CycE) [µM] | IC50 ([1]; Homo sapiens, 96 h) [µM] | maximal calculated oral bioavailability (Fmax) based on stability data in rat Hepatocytes [2] [%] | IC50 ([3]; Homo sapiens, A2780, 96 h) [µM] | IC50 (CDK9/CycT1 [4]) [µM] | Selectivity CDK9/CDK2 (CDK9/CycT1 [4]) | IC50 [1] [µM] | IC50 [3] [µM] | IC50 (CDK9/CycT1 [5]) [µM] | IC50 ([6]; Homo sapiens, MOLM-13, 72 h) [µM] | IC50 [6] [µM] | SMILES
1 | 1.5 |  |  |  | 0.004 | 360 | 0.359 | 0.167 | 0.009 |  | 0.141 | CS(=O)(Cc1cc(Nc2ncc(F)c(-c3ccc(F)cc3F)n2)cc(S(F)(F)(F)(F)F)c1)=NC#N (single isomer, unassigned) [Example 30, {[3-{[4-(2,4-Difluorophenyl)-5-fluoropyrimidin-2-yl]amino}-5-(pentafluoro-λ^6-sulfanyl)benzyl](methyl)oxido-λ^6-sulfanylidene}cyanamide]
2 | 0.89 | 0.501 |  | 0.279 | 0.054 | 16 |  |  | 0.007 | 0.281 |  | CS(=N)(=O)Cc1cc(Nc2ncc(F)c(-c3ccc(F)cc3F)n2)cc(S(F)(F)(F)(F)F)c1 (single isomer, unassigned) [Example 31, 4-(2,4-Difluorophenyl)-5-fluoro-N-{3-[(S-methylsulfonimidoyl)methyl]-5-(pentafluoro-λ^6-sulfanyl)phenyl}pyrimidin-2-amine]
3 | 0.47 | 1.06 |  | 1 | 0.015 | 30 |  |  | 0.334 | 0.946 |  | CS(=N)(=O)Cc1cc(Br)cc(Nc2ncc(F)c(-c3ccc(F)cc3F)n2)c1 (single isomer, unassigned) [Example 42, N-{3-Bromo-5-[(S-methylsulfonimidoyl)methyl]phenyl}-4-(2,4-difluorophenyl)-5-fluoropyrimidin-2-amine]

The next lines start with the compound.

Row | SMILES | IC50 (CDK2/CycE) [µM] | IC50 ([1]; Homo sapiens, 96 h) [µM] | maximal calculated oral bioavailability (Fmax) based on stability data in rat Hepatocytes [2] [%] | IC50 ([3]; Homo sapiens, A2780, 96 h) [µM] | IC50 (CDK9/CycT1 [4]) [µM] | Selectivity CDK9/CDK2 (CDK9/CycT1 [4]) | IC50 [1] [µM] | IC50 [3] [µM] | IC50 (CDK9/CycT1 [5]) [µM] | IC50 ([6]; Homo sapiens, MOLM-13, 72 h) [µM] | IC50 [6] [µM]
4 | CS(=O)(Cc1cc(Cl)cc(Nc2ncc(F)c(-c3ccc(F)cc3F)n2)c1)=NC#N (racemic) [Example 14, (rac)-[(3-Chloro-5-{[4-(2,4-difluorophenyl)-5-fluoropyrimidin-2-yl]amino}benzyl)(methyl)oxido-λ^6-sulfanylidene]cyanamide] | 0.53 | 1.02 | 75 | 0.54 |  |  |  |  |  |  | 
5 | CS(=O)(Cc1cc(Nc2ncc(F)c(-c3ccc(F)cc3F)n2)cc(C(F)(F)F)c1)=NC(N)=O (single isomer, unassigned) [Example 24, 1-{[3-{[4-(2,4-Difluorophenyl)-5-fluoropyrimidin-2-yl]amino}-5-(trifluoromethyl)benzyl](methyl)oxido-λ^6-sulfanylidene}urea] | 0.67 |  | 82 |  | 0.01 | 66 | 0.91 | 0.32 | 0.199 |  | 
6 | CS(=O)(Cc1cc(Nc2ncc(F)c(-c3ccc(F)cc3F)n2)cc(S(F)(F)(F)(F)F)c1)=NC#N (single isomer, unassigned) [Example 29, {[3-{[4-(2,4-Difluorophenyl)-5-fluoropyrimidin-2-yl]amino}-5-(pentafluoro-λ^6-sulfanyl)benzyl](methyl)oxido-λ^6-sulfanylidene}cyanamide] | 0.94 |  |  | 0.096 | 0.005 | 198 | 0.178 |  | 0.008 | 0.092 | 
